Read-outs that look alike come from different tables or passages of the source.
Tests used:
[1] = system: multi-drug resistant Acinetobacter baumannii; experiment: broth microdilution MIC of sulbactam, ampicillin, cefepime and combinations +/- Compound 1, panel of 51 Acinetobacter isolates
[2] = system: Acinetobacter baumannii-calcoaceticus species complex clinical isolates; experiment: MIC of triple combinations (Compound 1, sulbactam, meropenem or cefepime), 141 clinical isolates; type: cell-based; details: Acinetobacter, Cmpd 1 at 4 μg/mL in combinations, read-out: MIC
Source text: For a more comprehensive assessment of the ability of test compounds to potentiate sulbactam in triple combinations with β-lactams additional MIC assays were utilized.

## CO/N=C(\C(=O)N[C@@H]1C(=O)N2C(C(=O)[O-])=C(C[N+]3(C)CCCC3)CS[C@H]12)c1csc(N)n1 [FEP, cefepime]
[1]
  MIC50: 32 µg/mL
  MIC90: 128 µg/mL
[1]; read-out: Minimum inhibitory concentration (MIC), strain 0273 (ADC-25, OXA-23, OXA-66)
  MIC: 32 µg/mL
[1]; read-out: Minimum inhibitory concentration (MIC), strain 0274 (TEM-1D, ADC-25, OXA-66, OXA-72)
  MIC: 32 µg/mL
[1]; read-out: Minimum inhibitory concentration (MIC), strain 0275 (TEM-1D, ADC-25, OXA-23, OXA-66)
  MIC: 32 µg/mL
[1]; read-out: Minimum inhibitory concentration (MIC), strain 0276 (enzyme content ND)
  MIC: 128 µg/mL
[1]; read-out: Minimum inhibitory concentration (MIC), strain 0277 (TEM-1B, OXA-65, OXA-24)
  MIC: 128 µg/mL
[1]; read-out: Minimum inhibitory concentration (MIC), strain 0278 (TEM-1D, ADC-25, OXA-23, OXA-66)
  MIC: 32 µg/mL
[1]; read-out: Minimum inhibitory concentration (MIC), strain 0279 (TEM-1D, ADC-25, OXA-23, OXA-66)
  MIC: 32 µg/mL
[1]; read-out: Minimum inhibitory concentration (MIC), strain 0280 (TEM-1D, ADC-25, OXA-66)
  MIC: 16 µg/mL
[1]; read-out: Minimum inhibitory concentration (MIC), strain 0281 (TEM-1D, ADC-25, OXA-82)
  MIC: 16 µg/mL
[1]; read-out: Minimum inhibitory concentration (MIC), strain 0282 (TEM-1D, ADC-25, OXA-23, OXA-66)
  MIC: 64 µg/mL
[1]; read-out: Minimum inhibitory concentration (MIC), strain 0283 (TEM-1D, ADC-25, OXA-23, OXA-66)
  MIC: 16 µg/mL
[1]; read-out: Minimum inhibitory concentration (MIC), strain 0284 (TEM-1B, OXA-65, OXA-24)
  MIC: 32 µg/mL
[1]; read-out: Minimum inhibitory concentration (MIC), strain 0285 (TEM-1B, OXA-65, OXA-24)
  MIC: 32 µg/mL
[1]; read-out: Minimum inhibitory concentration (MIC), strain 0286 (ADC-25, OXA-66, OXA-24)
  MIC: 32 µg/mL
[1]; read-out: Minimum inhibitory concentration (MIC), strain 0287 (ADC-25, OXA-66, OXA-72)
  MIC: 32 µg/mL
[1]; read-out: Minimum inhibitory concentration (MIC), strain 0288 (ADC-25, OXA-23, OXA-66)
  MIC: 128 µg/mL
[1]; read-out: Minimum inhibitory concentration (MIC), strain 0289 (ADC-25, OXA-66, OXA-72)
  MIC: 32 µg/mL
[1]; read-out: Minimum inhibitory concentration (MIC), strain 0290 (TEM-1D, ADC-25, OXA-23, OXA-66)
  MIC: 32 µg/mL
[1]; read-out: Minimum inhibitory concentration (MIC), strain 0291 (TEM-1D, ADC-25, OXA-23, OXA-66)
  MIC: 8 µg/mL
[1]; read-out: Minimum inhibitory concentration (MIC), strain 0292 (OXA-66, OXA-72)
  MIC: 32 µg/mL
[1]; read-out: Minimum inhibitory concentration (MIC), strain 0293 (OXA-66, OXA-72)
  MIC: 16 µg/mL
[1]; read-out: Minimum inhibitory concentration (MIC), strain 0294 (TEM-1B, OXA-23, OXA-65)
  MIC: 32 µg/mL
[1]; read-out: Minimum inhibitory concentration (MIC), strain 0295 (TEM-1D, ADC-25, OXA-23, OXA-66)
  MIC: 32 µg/mL
[1]; read-out: Minimum inhibitory concentration (MIC), strain 0296 (ADC-25, OXA-23, OXA-223)
  MIC: 64 µg/mL
[1]; read-out: Minimum inhibitory concentration (MIC), strain 0297 (ADC-25, OXA-23, OXA-66)
  MIC: 32 µg/mL
[1]; read-out: Minimum inhibitory concentration (MIC), strain 0298 (TEM-1D, ADC-25, OXA-66, OXA-237)
  MIC: 32 µg/mL
[1]; read-out: Minimum inhibitory concentration (MIC), strain 0299 (PER-7, OXA-23, OXA-203)
  MIC: 128 µg/mL
[1]; read-out: Minimum inhibitory concentration (MIC), strain 0300 (ADC-25, OXA-66)
  MIC: 16 µg/mL
[1]; read-out: Minimum inhibitory concentration (MIC), strain 0301 (ADC-25, OXA-66, OXA-72)
  MIC: 128 µg/mL
[1]; read-out: Minimum inhibitory concentration (MIC), strain 0302 (OXA-23, OXA-82)
  MIC: 16 µg/mL
[1]; read-out: Minimum inhibitory concentration (MIC), strain 0303 (ADC-25, OXA-23, OXA-66)
  MIC: 16 µg/mL
[1]; read-out: Minimum inhibitory concentration (MIC), strain 0304 (ADC-25, OXA-66, OXA-72)
  MIC: 32 µg/mL
[1]; read-out: Minimum inhibitory concentration (MIC), strain 0305 (TEM-1B, OXA-65, OXA-24)
  MIC: 16 µg/mL
[1]; read-out: Minimum inhibitory concentration (MIC), strain 0306 (TEM-1B, OXA-65, OXA-24)
  MIC: 128 µg/mL
[1]; read-out: Minimum inhibitory concentration (MIC), strain 0307 (ADC-25, OXA-66, OXA-237)
  MIC: 32 µg/mL
[1]; read-out: Minimum inhibitory concentration (MIC), strain 0308 (TEM-1D, ADC-25, OXA-71)
  MIC: 16 µg/mL
[1]; read-out: Minimum inhibitory concentration (MIC), strain 0309 (OXA-23, OXA-82)
  MIC: 64 µg/mL
[1]; read-out: Minimum inhibitory concentration (MIC), strain 0310 (OXA-23, OXA-82)
  MIC: 32 µg/mL
[1]; read-out: Minimum inhibitory concentration (MIC), strain 0311 (ADC-25, OXA-23, OXA-82)
  MIC: 128 µg/mL
[1]; read-out: Minimum inhibitory concentration (MIC), strain 0312 (OXA-69)
  MIC: 32 µg/mL
[1]; read-out: Minimum inhibitory concentration (MIC), strain 0313 (TEM-1D, OXA-23, OXA-69)
  MIC: 64 µg/mL
[1]; read-out: Minimum inhibitory concentration (MIC), strain 157834 (enzyme content ND)
  MIC: 16 µg/mL
[1]; read-out: Minimum inhibitory concentration (MIC), strain 157842 (enzyme content ND)
  MIC: 4 µg/mL
[1]; read-out: Minimum inhibitory concentration (MIC), strain 157876 (enzyme content ND)
  MIC: 8 µg/mL
[1]; read-out: Minimum inhibitory concentration (MIC), strain 157901 (enzyme content ND)
  MIC: 16 µg/mL
[1]; read-out: Minimum inhibitory concentration (MIC), strain 161750 (enzyme content ND)
  MIC: 128 µg/mL
[1]; read-out: Minimum inhibitory concentration (MIC), strain 161752 (enzyme content ND)
  MIC: 16 µg/mL
[1]; read-out: Minimum inhibitory concentration (MIC), strain 161755 (enzyme content ND)
  MIC: 8 µg/mL
[1]; read-out: Minimum inhibitory concentration (MIC), strain 161756 (enzyme content ND)
  MIC: 8 µg/mL
[1]; read-out: Minimum inhibitory concentration (MIC), strain 161760 (enzyme content ND)
  MIC: 32 µg/mL
[1]; read-out: Minimum inhibitory concentration (MIC), strain 161762 (enzyme content ND)
  MIC: 8 µg/mL
[2]; strain 990089
  MIC: 64 µg/mL
[2]; strain 993131
  MIC: 64 µg/mL
[2]; strain 994180
  MIC: 32 µg/mL
[2]; strain 996612
  MIC: > 512 µg/mL
[2]; strain 996707
  MIC: 64 µg/mL
[2]; strain 996869
  MIC: 32 µg/mL
[2]; strain 997574
  MIC: 16 µg/mL
[2]; strain 998532
  MIC: 64 µg/mL
[2]; strain 998907
  MIC: 8 µg/mL
[2]; strain 999306
  MIC: 8 µg/mL
[2]; strain 1001611
  MIC: 16 µg/mL
[2]; strain 1002208
  MIC: 64 µg/mL
[2]; strain 1002247
  MIC: > 512 µg/mL
[2]; strain 1002688
  MIC: 64 µg/mL
[2]; strain 1002952
  MIC: 64 µg/mL
[2]; strain 1003557
  MIC: 64 µg/mL
[2]; strain 1003787
  MIC: > 512 µg/mL
[2]; strain 1008510
  MIC: 64 µg/mL
[2]; strain 1008730
  MIC: 64 µg/mL
[2]; strain 1010245
  MIC: 64 µg/mL
[2]; strain 1010331
  MIC: > 512 µg/mL
[2]; strain 1010950
  MIC: > 512 µg/mL
[2]; strain 1011959
  MIC: 64 µg/mL
[2]; strain 1013022
  MIC: 64 µg/mL
[2]; strain 1013035
  MIC: 32 µg/mL
[2]; strain 1014143
  MIC: 32 µg/mL
[2]; strain 1014646
  MIC: 64 µg/mL
[2]; strain 1016836
  MIC: 64 µg/mL
[2]; strain 1018109
  MIC: 2 µg/mL
[2]; strain 1018801
  MIC: > 512 µg/mL
[2]; strain 1023207
  MIC: 32 µg/mL
[2]; strain 1024119
  MIC: 32 µg/mL
[2]; strain 1024215
  MIC: 32 µg/mL
[2]; strain 1027234
  MIC: 64 µg/mL
[2]; strain 1027603
  MIC: 64 µg/mL
[2]; strain 1027748
  MIC: 32 µg/mL
[2]; strain 1028193
  MIC: 32 µg/mL
[2]; strain 1029913
  MIC: 32 µg/mL
[2]; strain 1030427
  MIC: 32 µg/mL
[2]; strain 1030928
  MIC: > 512 µg/mL
[2]; strain 1031191
  MIC: 64 µg/mL
[2]; strain 1032669
  MIC: 64 µg/mL
[2]; strain 1034880
  MIC: 64 µg/mL
[2]; strain 1034912
  MIC: 64 µg/mL
[2]; strain 1034925
  MIC: 64 µg/mL
[2]; strain 1035788
  MIC: 32 µg/mL
[2]; strain 1035794
  MIC: 16 µg/mL
[2]; strain 1035825
  MIC: 64 µg/mL
[2]; strain 1036045
  MIC: 64 µg/mL
[2]; strain 1036068
  MIC: 64 µg/mL
[2]; strain 1036768
  MIC: > 512 µg/mL
[2]; strain 1036781
  MIC: 32 µg/mL
[2]; strain 1036882
  MIC: 16 µg/mL
[2]; strain 1036921
  MIC: 32 µg/mL
[2]; strain 1037193
  MIC: 32 µg/mL
[2]; strain 1037256
  MIC: 32 µg/mL
[2]; strain 1037479
  MIC: > 512 µg/mL
[2]; strain 1037714
  MIC: 4 µg/mL
[2]; strain 1037732
  MIC: 32 µg/mL
[2]; strain 1037738
  MIC: 32 µg/mL
[2]; strain 1037747
  MIC: > 512 µg/mL
[2]; strain 1039502
  MIC: > 512 µg/mL
[2]; strain 1039515
  MIC: 64 µg/mL
[2]; strain 1039518
  MIC: 64 µg/mL
[2]; strain 1040900
  MIC: 64 µg/mL
[2]; strain 1040917
  MIC: > 512 µg/mL
[2]; strain 1042182
  MIC: 32 µg/mL
